In brackets after ≈: the same amount, converted by molar mass. Entries after “also recorded” stand apart in the source; their conditions may differ. Where two headings read alike, the source gives them in different places.
Experiments:
[1] = Approximate solubility of the free base by gravimetry method; format: physicochemical; settings: organic solvent or mixture, thermodynamic from solid
Protocol: The objective of measuring solubility of free base was to identify potential solvents for salt formation process development. Approximate solubility of the free base was measured by gravimetry method. Excess solids were added to various solvents including some Class III solvents (ICH guideline) at RT and 50° C. Since the solubility in these solvents is generally low, it was decided to mix water with these solvents. The suspensions were slurried for one day; the clear liquors from the top portion of the suspension were used for solubility determination by gravimetry method.

[2] = pKa analysis (UV-metric titration); format: physicochemical; settings: methanol-water co-solvent, aqueous values by Yasuda-Shedlovsky extrapolation, 25.0-25.1 °C, 0.15 M KCl
Protocol: The sample pKas were determined using the spectrometric (UV-metric) technique. The sample was titrated in a UV-metric triple titration from pH 2.0-12.0 at concentrations of 31 -23 µM, under methanol-water co-solvent conditions (the methanol mixing ratio varied from 63.9 to 46.7% w/w).
It should be noted that an additional potentiometric assay was carried out which confirmed the pKas and that there were no further pKas associated with the sample within the measurable pH range (2.0-12.0).

cytochrome bc1 = cytochrome bc1 (Mycobacterium tuberculosis, UniProt P9WP37); settings: Pethe et al., Nature Medicine, 19, 1157-1160 (2013); inhibiting cytochrome bc1 activity; cited from earlier work
Sequence of cytochrome bc1 (P9WP37 whole entry, looked up): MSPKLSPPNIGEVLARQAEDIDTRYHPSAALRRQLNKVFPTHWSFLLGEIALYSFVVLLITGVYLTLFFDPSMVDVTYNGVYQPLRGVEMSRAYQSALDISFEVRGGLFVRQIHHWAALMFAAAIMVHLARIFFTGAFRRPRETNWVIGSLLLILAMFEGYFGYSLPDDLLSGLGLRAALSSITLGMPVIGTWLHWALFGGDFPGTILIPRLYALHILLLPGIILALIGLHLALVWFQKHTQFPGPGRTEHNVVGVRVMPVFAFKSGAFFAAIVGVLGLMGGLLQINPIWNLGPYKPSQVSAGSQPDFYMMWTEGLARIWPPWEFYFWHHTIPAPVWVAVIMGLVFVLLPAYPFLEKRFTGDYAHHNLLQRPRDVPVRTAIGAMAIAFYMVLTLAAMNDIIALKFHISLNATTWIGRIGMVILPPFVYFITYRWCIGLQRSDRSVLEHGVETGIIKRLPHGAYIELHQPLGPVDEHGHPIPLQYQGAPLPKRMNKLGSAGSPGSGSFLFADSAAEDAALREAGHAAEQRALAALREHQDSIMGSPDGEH

[3] = Solubility estimation by aliquot addition and Clarity temperature cycling; settings: for solubility: 20 °C, organic solvent or mixture, thermodynamic from solid
[4] = mono-tosylate
physchem [5] = settings: pH 1, simulated gastric fluid, thermodynamic from solid
DVS water absorption = format: physicochemical; settings: 90% RH at RT; ditosylate
Excerpt: (FIGS. 4-5). It is the predominant form obtained in slurry experiments. Conversion from Form A to other XRPD patterns was mainly obtained from methanol (to Form C) or water (to pattern B) in the slurry medium. However, as it will be shown in further sections, Form C is converted to Form A upon re-slurry in the majority of other solvents (than methanol).
FIGS. 9 to 11 show XRPD, DSC, and TGA of a solid with Form C. […] The XRPD peaks of pattern C are sharper than those of Form A. Form C is the predominant form when methanol is used as the slurry medium. However, Form “C” is not a methanol solvate form of the di-tosylate salt. Many reactive crystallization experiments using different solvents generated Form C immediately after salt formation.

[6] = Exposing Forms A and C in 100% RH at RT (XRPD/DSC); format: physicochemical; settings: 100% RH at RT for 6 days, ditosylate
Excerpt: Forms A and C were exposed in 100% RH environment at RT for 6 days; the solids were subsequently analyzed using DSC and XRPD.
In FIGS. 1 and 17, the XRPD of sample of Form A (previous obtained form EA and IPA/MEK) before and after 6 days exposure to 100% RH are sketched. FIGS. 19 and 20 show the DSC scan of the same samples after exposure. […] FIGS. 18 and 21 show the result of the same treatment for Form C.

[7] = Forms A and C re-slurry in pure solvents at RT (aging experiments, XRPD); format: physicochemical; settings: re-slurry of Forms A and C at RT; except in methanol
Protocol: These experiments were performed to investigate potential transformation between Form A and C. The procedure of the experiments is shown below. • 15 mg Form A and 15 mg Form C were add into a 1.5 ml vial with magnetic stirrer. • 20 vol (600 ul) of various solvents was added into the vial • The suspensions were stir at RT for 5 days • Then filter and the solid was sent for XRPD (before and after drying in oven) and DSC

[8] = Long-term stability at 25° C./60% RH (HPLC); format: physicochemical; settings: for Purity [%] (as measured by HPLC): 25° C./60% RH
[9] = Stability under accelerated conditions 40° C./75% RH (HPLC); format: physicochemical; settings: 40° C./75% RH, 6 months
physchem [10] = settings: thermodynamic from solid
Protocol: Approximate solubility of the starting di-tosylate salt (Form A) was measured by gravimetry method. 100 mg of the solid was suspended in 10 vol of various solvents and stirred at RT and 50° C. for 3 days. The mother liquid was then used to measure the solubility.

CCc1nc2ccc(Cl)cn2c1C(=O)NCc1ccc(N2CCC(c3ccc(OC(F)(F)F)cc3)CC2)cc1 [Q203 free base, 6-chloro-2-ethyl-N-(4-(4-(4-(trifluoromethoxy)phenyl)piperidine-1-yl)benzyl)imidazo[1,2-a]pyridine-3-carboxamide]
solubility at 1 day ([1]; Acetone+5%water, 50° C.): 74 mg/mL (≈ 133 mM) | solubility at 1 day ([1]; Acetone+5%water, RT): 22 mg/mL (≈ 39.5 mM) | solubility at 1 day ([1]; Acetone+10%water, 50° C.): 42 mg/mL (≈ 75.4 mM) | solubility at 1 day ([1]; Acetone, 50° C.): 48 mg/mL (≈ 86.2 mM) | solubility at 1 day ([1]; EA and its mixture with water, 50° C.): 55 to 98 mg/mL (≈ 98.7 to 176 mM) | solubility at 1 day ([1]; EA+4%water, 50° C.): 55 mg/mL (≈ 98.7 mM) | solubility at 1 day ([1]; EA+4%water, RT): 16 mg/mL (≈ 28.7 mM) | solubility at 1 day ([1]; Ethyl Acetate (EA), 50° C.): 99 mg/mL (≈ 178 mM) | solubility at 1 day ([1]; Ethyl Acetate (EA), RT): 13 mg/mL (≈ 23.3 mM) | solubility at 1 day ([1]; IPA or its mixture with water, 50° C.): 11 to 22 mg/mL (≈ 19.7 to 39.5 mM) | solubility at 1 day ([1]; IPA+5%water, 50° C.): 22 mg/mL (≈ 39.5 mM) | solubility at 1 day ([1]; IPA+15%water, 50° C.): 11 mg/mL (≈ 19.7 mM) | solubility at 1 day ([1]; IPAC+4%water, 50° C.): 35 mg/mL (≈ 62.8 mM) | solubility at 1 day ([1]; Isopropyl Acetate (IPAC), 50° C.): 51 mg/mL (≈ 91.6 mM) | solubility at 1 day ([1]; Isopropyl Acetate (IPAC), RT): 26 mg/mL (≈ 46.7 mM) | solubility at 1 day ([1]; Isopropyl Alcohol (IPA), 50° C.): 20 mg/mL (≈ 35.9 mM) | solubility at 1 day ([1]; MA+4%water, 50° C.): 105 mg/mL (≈ 189 mM) | solubility at 1 day ([1]; MA+4%water, RT): 18 mg/mL (≈ 32.3 mM) | solubility at 1 day ([1]; Methyl Amine (MA), 50° C.): 94 mg/mL (≈ 169 mM) | solubility at 1 day ([1]; Methyl Amine (MA), RT): 38 mg/mL (≈ 68.2 mM) | solubility at 1 day ([1]; Tetrahydrofuran (THF), 50° C.): 279 mg/mL (≈ 501 mM) | solubility at 1 day ([1]; Tetrahydrofuran (THF), RT): 133 mg/mL (≈ 239 mM) | solubility at 1 day ([1]; acetone and its mixture with water, 50° C.): 41 to 74 mg/mL (≈ 73.6 to 133 mM) | solubility at 1 day ([1]; methyl acetate, 50° C.): 94 to 105 mg/mL (≈ 169 to 189 mM) | pKa [2]: 3.7 ± 0.06 | activity against tuberculosis (cytochrome bc1): active against tuberculosis | Tcryst ([3]; IPA): 37.0-39.3 °C | Tdisso ([3]; IPA): 52.5-55.7 °C | solubility ([3]; IPA): < 25.3 mg/mL | Tcryst ([3]; MEK): not observed | Tdisso ([3]; MEK): ambient | solubility ([3]; MEK): 50 to 56 mg/mL (≈ 89.8 to 101 mM) | Tcryst ([3]; acetone): *not observed | solubility ([3]; acetone): < 25.4 mg/mL | Tdisso ([3]; acetone, partial solubility when heated, solid remained after two Clarity heat/cool cycles): *35 °C | Tcryst ([3]; acetonitrile): 47.4-47.9 °C | Tdisso ([3]; acetonitrile): 58.2-58.9 °C | solubility ([3]; acetonitrile): < 25 mg/mL | Tcryst ([3]; dichloromethane): not observed | Tdisso ([3]; dichloromethane): ambient | solubility ([3]; dichloromethane): 169 to 253 mg/mL (≈ 303 to 454 mM) | Tcryst ([3]; dimethyl sulfoxide): 32.8-39.3 °C | Tdisso ([3]; dimethyl sulfoxide): 53.6-54.7 °C | solubility ([3]; dimethyl sulfoxide): < 25.5 mg/mL | Tcryst ([3]; ethyl acetate): not observed | Tdisso ([3]; ethyl acetate): ambient | solubility ([3]; ethyl acetate): 34 to 36 mg/mL (≈ 61 to 64.6 mM) | Tcryst ([3]; methanol): 25.3-26.6 °C | Tdisso ([3]; methanol): 45.6-47.1 °C | solubility ([3]; methanol): < 25 mg/mL | Tcryst ([3]; methyl tert-butyl ether): not observed | Tdisso ([3]; methyl tert-butyl ether): not observed | solubility ([3]; methyl tert-butyl ether): < 25.6 mg/mL | Tcryst ([3]; tetrahydrofuran): not observed | Tdisso ([3]; tetrahydrofuran): ambient | solubility ([3]; tetrahydrofuran): 128 to 255 mg/mL (≈ 230 to 458 mM)

CCc1nc2ccc(Cl)cn2c1C(=O)NCc1ccc(N2CCC(c3ccc(OC(F)(F)F)cc3)CC2)cc1.Cc1ccc(S(=O)(=O)O)cc1 [pTSA salt, 6-chloro-2-ethyl-N-(4-(4-(4-(trifluoromethoxy)phenyl)piperidine-1-yl)benzyl)imidazo[1,2-a]pyridine-3-carboxamide mono-tosylate]
solid form after slurrying in buffer (XRPD) ([4]; pH 1 buffer, listed as pTSA): remained the same pattern | solid form after slurrying in buffer (XRPD) ([4]; pH 1 buffer): remained stable | solid form after slurrying in buffer (XRPD) ([4]; pH 4.5 and above): converted to freebase (type 28) | solubility (physchem [5]): ~0.33 mg/mL

CCc1nc2ccc(Cl)cn2c1C(=O)NCc1ccc(N2CCC(c3ccc(OC(F)(F)F)cc3)CC2)cc1.Cc1ccc(S(=O)(=O)O)cc1.Cc1ccc(S(=O)(=O)O)cc1 [Form A, 6-chloro-2-ethyl-N-(4-(4-(4-(trifluoromethoxy)phenyl)piperidine-1-yl)benzyl)imidazo[1,2-a]pyridine-3-carboxamide ditosylate]
water absorption (DVS) (DVS water absorption): around 0.35% | crystalline form after exposure to 100% RH [6]: maintains its crystalline form; also recorded: no change to crystalline | relative polymorph stability [7]: more stable than Form C | long-term storage stability ([8]; 25° C. and 60% RH for up to 60 months, listed as Q203-ditosylate form A, ditosylate): remains stable | Purity [%] (as measured by HPLC) ([8]; 0 months): >98% | Purity [%] (as measured by HPLC) ([8]; 6 months): >98% | Purity [%] (as measured by HPLC) ([8]; 12 months): >98% | Purity [%] (as measured by HPLC) ([8]; 24 months): >98% | Purity [%] (as measured by HPLC) ([8]; 36 months): >98% | Purity [%] (as measured by HPLC) ([8]; 48 months): >98% | Purity [%] (as measured by HPLC) ([8]; 60 months): >98% | purity (HPLC) [9]: > 98% | Approximate solubility (Acetone, 50° C.): nil | Approximate solubility (Acetone, RT): nil | Approximate solubility (Acetonitrile, 50° C.): nil | Approximate solubility (Acetonitrile, RT): nil | Approximate solubility (Dichloromethane (DCM), 50° C.): nil | Approximate solubility (Dichloromethane (DCM), RT): nil | Approximate solubility (EA, 50° C.): nil | Approximate solubility (EA, RT): nil | Approximate solubility (IPA, RT): nil | Approximate solubility (IPAC, 50° C.): nil | Approximate solubility (IPAC, RT): nil | Approximate solubility (MA, 50° C.): nil | Approximate solubility (MA, RT): nil | Approximate solubility (Methul Isobutyl Ketone (MIBK), RT): nil | Approximate solubility (Methyl Ethyl Ketone (MEK), 50° C.): nil | Approximate solubility (Methyl Ethyl Ketone (MEK), RT): nil | Approximate solubility (Methyl tert-Butyl Ether (TBME), 50° C.): nil | Approximate solubility (Methyl tert-Butyl Ether (TBME), RT): nil | Approximate solubility (THF, 50° C.): nil | Approximate solubility (THF, RT): nil | Approximate solubility (Water, RT): nil | solubility at 3 days (physchem [10]; IPA, 50 °C, organic solvent or mixture): 3 mg/mL | solubility at 3 days (physchem [10]; ethanol (EtOH), 50 °C, organic solvent or mixture): 7 mg/mL | solubility at 3 days (physchem [10]; ethanol (EtOH), organic solvent or mixture): 1 mg/mL | solubility at 3 days (physchem [10]; methanol (MeOH), 50 °C, organic solvent or mixture): 275 mg/mL | solubility at 3 days (physchem [10]; methanol (MeOH), organic solvent or mixture): 126 mg/mL | solubility at 3 days (physchem [10]; methyl isobutyl ketone (MIBK), 50 °C, organic solvent or mixture): 2 mg/mL | solubility at 3 days (physchem [10]; toluene, 50 °C, organic solvent or mixture): 3 mg/mL | solubility at 3 days (physchem [10]; toluene, organic solvent or mixture): 1 mg/mL | solubility at 3 days (physchem [10]; water, 50 °C): 3 mg/mL
